From article PMC10010643 (Cancer Chemotherapy and Pharmacology, 2023)
Read-outs that look alike come from different tables or passages of the source.

What was measured:
[1] = test system: programmed cell death protein 1 and PD-L1; conditions: pembrolizumab and atezolizumab; cited from earlier work
[2] = Plasma PK, Part B multiple oral BID doses in healthy participants; format: in vivo, human; conditions: for concentration at 12 h / AUC / Cmax / Tmax / half-life / Vd/F: human, plasma, oral; for concentration at 12 h: read-out: Trough (12 h post-dose) concentration (Cmin), geometric mean (range); for AUC: read-out: AUC0-τ, geometric mean (CV%); for Cmax: read-out: Cmax, geometric mean (CV%); for half-life: read-out: t½, arithmetic mean (SD) (converted); for Vd/F: read-out: Vz/F, geometric mean (CV%)
Method: Following review of safety, tolerability, and PK data from cohorts A1–A6, participants received twice-daily doses (BID) under fasted conditions on days 1–9 and a final single dose in the morning of day 10. […] There was one treatment period and all participants stayed at the CRU from day − 1 until the morning of day 11 (24 h after the final dose on day 10). All were to return for a follow-up visit 5–7 days after their final dose.
Blood samples (4 mL) were collected in K3 EDTA tubes by venipuncture or cannulation. In Part A, samples were taken pre-dose and at 0.5, 1, 1.5, 2, 3, 4, 6, 8, 12, 16, 24, 36 and 48 h post-dose. In part B, samples were taken pre-dose on days 1 (pre-AM dose) and 10 (pre-final dose) and at 0.5, 1, 1.5, 2, 3, 4, 6, 8 and 12 h post-AM dose for day 1 and post-final dose for day 10. Samples were also taken on days 4–9 pre-AM dose, on day 11 at 24 and 36 h post-final dose, and on day 12 at 48 h post-final dose. Blood samples were centrifuged at 1500 g for 10 min at […] and split into two plasma aliquots.
Urine was collected by spot collection in Part A only before dosing and between 0–6, 6–12, 12–24, and 24–48 h post-dose. Blood and urine aliquots were stored in polypropylene tubes at − 70 °C until bioanalysis.
In Part B, the plasma PK parameters included AUC over a dosing interval (AUC0–τ), AUC0–∞, Cmax, Tmax, t½, minimum observed plasma concentration (Cmin), observed accumulation ratio based on AUC0–τ (RAAUC0–τ) and observed accumulation ratio based on Cmax (RACmax). Further details can be found in the Supplementary materials.
Dose proportionality was analyzed for exposure parameters after fasted doses. The power model was used on AUC0–∞, AUC0–tlast, and Cmax on day 1 in Part A. Data were analyzed over two dose ranges: 50–400 mg (50 mg capsules) and 5–50 mg (5 mg capsules). An analysis of variance was used on AUC0–τ and Cmax on day 10 in Part B. The effect of food on AUC0–∞, AUC0–tlast, and Cmax at 50 mg in Part A was investigated using a mixed model which included treatment as a fixed effect and subject as a random effect.

liver fibrosis = test system: liver fibrosis; parameters: method as in PMID 36154172; conditions: CCl4-induced; cited from earlier work
[3] = test system: human liver stellate cell line; parameters: method as in PMID 36154172; conditions: in vitro; cited from earlier work
[4] = parameters: method as in PMID 36154172; conditions: in mice; cited from earlier work
[5] = 50 mg, 50 mg BID, fasted, Day 1
[6] = 50 mg, 50 mg BID, fasted, Day 10
[7] = 100 mg, 100 mg BID, fasted, Day 1
[8] = 100 mg, 100 mg BID, fasted, Day 10

OC[C@H]1O[C@H](Sc2cncc(Br)c2)[C@H](O)[C@@H](n2cc(-c3cc(F)c(F)c(F)c3)nn2)[C@H]1O [GB1211]
Galectin-3-induced inhibition of immune checkpoint inhibitor binding [1]: reverses | CL/F, geometric mean (CV%) ([2]; 50 mg BID, fasted, Day 10): 9.75 (29.0) L/h | Cmin, geometric mean (CV%) ([2]; 50 mg BID, fasted, Day 10): 249 (26.2) ng/mL | CL/F, geometric mean (CV%) ([2]; 100 mg BID, fasted, Day 10): 13.3 (21.1) L/h | Cmin, geometric mean (CV%) ([2]; 100 mg BID, fasted, Day 10): 338 (27.5) ng/mL | t½, arithmetic mean (SD) ([2]; 100 mg BID, fasted, Day 10): 13.1 (2.65) h | Dose proportionality of AUC0–τ and Cmax ([2]; 50 and 100 mg BID, day 10): sub-proportional manner | Time to steady-state after the start of the BID multiple-dosing period ([2]; by the morning of day 3): 48 h | concentration at 12 h ([2]; 50 mg BID, day 10): 249 ng/mL | AUC [2, 5]: 2220 ng·h/mL | Cmax [2, 5]: 330 ng/mL | Tmax ([2]; 50 mg, 50 mg BID, fasted, Day 1, read-out: Tmax, median (min–max)): 4 h | AUC [2, 6]: 5130 ng·h/mL | Cmax [2, 6]: 658 ng/mL | Tmax ([2]; 50 mg, 50 mg BID, fasted, Day 10, read-out: Tmax, median (min–max)): 2.5 h | half-life [2, 6]: ~21.4 h | concentration at 12 h ([2]; 100 mg BID, day 10): 338 ng/mL | AUC [2, 7]: 3560 ng·h/mL | Cmax [2, 7]: 546 ng/mL | Tmax ([2]; 100 mg, 100 mg BID, fasted, Day 1, read-out: Tmax, median (min–max)): 3 h | AUC [2, 8]: 7530 ng·h/mL | Cmax [2, 8]: 975 ng/mL | Tmax ([2]; 100 mg, 100 mg BID, fasted, Day 10, read-out: Tmax, median (min–max)): 3 h | half-life [2, 8]: ~13.1 h | Tmax ([2]; multiple BID doses, days 1 and 10, read-out: Median Tmax, range): 2.5 to 4 h | Vd/F ([2]; 50 mg BID, fasted, Day 10): 311 L | Vd/F ([2]; 100 mg BID, fasted, Day 10): 248 L | Accumulation in plasma with multiple dosing ([2]; multiple BID oral dosing): ~ twofold | Time to steady-state ([2]; multiple BID oral dosing): ≤ 3 days | Fibrosis in vivo, liver (liver fibrosis): reducing fibrosis | TGFβ-induced fibrosis gene expression [3]: inhibiting TGFβ-induced fibrosis gene expression | Oral bioavailability [4]: 68%
